Data as given in ChEMBL document CHEMBL1909046, “DrugMatrix in vitro pharmacology data”.

How the values were obtained:
[1] = molecular target: Sodium-dependent noradrenaline transporter (Homo sapiens, UniProt P23975); assay: DRUGMATRIX: Norepinephrine Transporter radioligand binding (ligand: [125I] RTI-55); assay type: cell membranes, MDCK, Membrane; conditions: Not Active = under 50% inhibition at 10 µM
Androgen receptor [2] = molecular target: T1, Androgen receptor (Rattus norvegicus, UniProt P15207); note: in other assays of this panel Not Active means under 50% inhibition at 10 µM
T1 sequence (P15207 whole entry): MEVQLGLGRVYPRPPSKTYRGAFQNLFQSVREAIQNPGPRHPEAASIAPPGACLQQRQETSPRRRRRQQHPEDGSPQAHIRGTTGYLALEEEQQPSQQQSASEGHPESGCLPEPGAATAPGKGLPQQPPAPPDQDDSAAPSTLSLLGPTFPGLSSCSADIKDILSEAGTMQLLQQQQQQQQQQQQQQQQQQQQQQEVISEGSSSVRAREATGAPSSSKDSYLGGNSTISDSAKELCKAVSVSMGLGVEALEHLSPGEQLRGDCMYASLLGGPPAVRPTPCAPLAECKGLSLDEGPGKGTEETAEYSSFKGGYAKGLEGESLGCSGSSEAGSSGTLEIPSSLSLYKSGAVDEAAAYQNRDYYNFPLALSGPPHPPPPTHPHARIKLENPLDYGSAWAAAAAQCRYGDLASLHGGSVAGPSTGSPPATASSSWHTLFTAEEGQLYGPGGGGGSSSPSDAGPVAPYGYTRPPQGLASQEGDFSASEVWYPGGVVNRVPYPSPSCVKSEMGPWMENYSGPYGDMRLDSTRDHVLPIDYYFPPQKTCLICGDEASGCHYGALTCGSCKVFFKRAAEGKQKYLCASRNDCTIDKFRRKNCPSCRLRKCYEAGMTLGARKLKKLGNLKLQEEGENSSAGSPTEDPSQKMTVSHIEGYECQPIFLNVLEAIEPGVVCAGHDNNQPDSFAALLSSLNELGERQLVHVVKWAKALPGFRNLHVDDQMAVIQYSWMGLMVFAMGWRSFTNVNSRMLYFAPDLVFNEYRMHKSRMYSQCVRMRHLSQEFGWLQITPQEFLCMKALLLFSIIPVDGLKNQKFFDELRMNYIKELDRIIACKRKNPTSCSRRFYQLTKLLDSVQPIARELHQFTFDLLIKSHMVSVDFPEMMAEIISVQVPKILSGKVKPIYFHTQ

Glucocorticoid receptor [3] = molecular target: T2, Glucocorticoid receptor (Homo sapiens, UniProt P04150); conditions: hela s3; note: in other assays of this panel Not Active means under 50% inhibition at 10 µM
T2 sequence (P04150 whole entry): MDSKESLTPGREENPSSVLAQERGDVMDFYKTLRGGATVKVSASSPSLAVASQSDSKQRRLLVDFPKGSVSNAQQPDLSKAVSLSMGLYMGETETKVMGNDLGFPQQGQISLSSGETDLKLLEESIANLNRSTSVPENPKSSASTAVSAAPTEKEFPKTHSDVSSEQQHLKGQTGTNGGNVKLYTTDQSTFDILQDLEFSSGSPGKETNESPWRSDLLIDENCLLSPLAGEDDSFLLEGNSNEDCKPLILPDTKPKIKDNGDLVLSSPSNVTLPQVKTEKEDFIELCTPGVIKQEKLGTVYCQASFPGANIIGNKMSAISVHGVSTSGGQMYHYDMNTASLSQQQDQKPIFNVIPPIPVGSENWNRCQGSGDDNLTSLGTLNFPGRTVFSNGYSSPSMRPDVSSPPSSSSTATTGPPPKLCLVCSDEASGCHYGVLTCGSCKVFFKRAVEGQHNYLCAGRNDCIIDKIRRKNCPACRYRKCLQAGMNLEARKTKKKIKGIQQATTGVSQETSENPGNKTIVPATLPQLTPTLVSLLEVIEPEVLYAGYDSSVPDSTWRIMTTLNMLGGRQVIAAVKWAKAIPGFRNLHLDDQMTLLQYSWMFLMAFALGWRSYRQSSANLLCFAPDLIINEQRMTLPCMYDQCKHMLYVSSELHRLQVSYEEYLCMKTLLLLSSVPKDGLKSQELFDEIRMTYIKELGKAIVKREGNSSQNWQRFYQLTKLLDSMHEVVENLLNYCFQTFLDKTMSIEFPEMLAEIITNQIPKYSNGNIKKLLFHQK

Glucocorticoid receptor [4] = molecular target: T2, Glucocorticoid receptor; assay: biochemical
Androgen receptor [5] = molecular target: T1, Androgen receptor; remark: listed apart in the source
Cytochrome P450 2D6 = Cytochrome P450 2D6 (Homo sapiens, UniProt P10635); note: in other assays of this panel Not Active means under 50% inhibition at 10 µM
Sequence of Cytochrome P450 2D6 (P10635 whole entry): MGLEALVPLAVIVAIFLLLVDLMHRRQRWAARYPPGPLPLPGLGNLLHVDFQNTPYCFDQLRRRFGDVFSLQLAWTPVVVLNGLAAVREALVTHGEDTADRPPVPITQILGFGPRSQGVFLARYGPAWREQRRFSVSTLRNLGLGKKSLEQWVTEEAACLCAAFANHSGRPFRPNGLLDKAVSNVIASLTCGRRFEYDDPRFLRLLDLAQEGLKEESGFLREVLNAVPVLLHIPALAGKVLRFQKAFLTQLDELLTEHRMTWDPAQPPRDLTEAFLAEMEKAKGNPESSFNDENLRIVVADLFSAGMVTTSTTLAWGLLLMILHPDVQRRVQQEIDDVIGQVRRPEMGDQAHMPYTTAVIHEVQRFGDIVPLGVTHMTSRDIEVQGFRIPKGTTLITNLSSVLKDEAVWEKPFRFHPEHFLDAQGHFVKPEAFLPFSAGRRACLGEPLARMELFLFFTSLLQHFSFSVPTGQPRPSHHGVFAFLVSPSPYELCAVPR

Sequence of Sodium-dependent noradrenaline transporter (P23975 whole entry): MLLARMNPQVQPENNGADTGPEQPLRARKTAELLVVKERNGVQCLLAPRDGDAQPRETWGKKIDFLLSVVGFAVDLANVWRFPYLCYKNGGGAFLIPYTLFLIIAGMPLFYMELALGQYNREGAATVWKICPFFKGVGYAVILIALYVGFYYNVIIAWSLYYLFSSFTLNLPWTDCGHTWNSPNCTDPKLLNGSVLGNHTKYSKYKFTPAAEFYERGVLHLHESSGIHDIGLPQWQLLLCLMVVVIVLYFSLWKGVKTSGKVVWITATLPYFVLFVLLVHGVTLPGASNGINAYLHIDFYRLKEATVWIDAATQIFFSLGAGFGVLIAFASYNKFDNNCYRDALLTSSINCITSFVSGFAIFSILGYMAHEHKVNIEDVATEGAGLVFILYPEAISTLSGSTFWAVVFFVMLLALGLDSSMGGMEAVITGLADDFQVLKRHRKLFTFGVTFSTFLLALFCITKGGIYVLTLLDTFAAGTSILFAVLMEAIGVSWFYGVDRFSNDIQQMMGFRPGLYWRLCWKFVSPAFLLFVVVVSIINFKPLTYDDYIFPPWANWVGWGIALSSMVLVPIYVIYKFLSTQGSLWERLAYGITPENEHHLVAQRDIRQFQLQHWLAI

CADMIUM DICHLORIDE
IC50 ([1]; mdck): Not Active
Ki ([1]; mdck): Not Active
IC50 (Androgen receptor [2]): Not Active
Ki (Androgen receptor [2]): Not Active
IC50 (Glucocorticoid receptor [3]): Not Active
Ki (Glucocorticoid receptor [3]): Not Active

CC(C)(Oc1ccc(C2CCCc3ccccc32)cc1)C(=O)O (configuration not stated) [NAFENOPIN]
IC50 ([1]; mdck): Not Active
IC50 (Androgen receptor [2]): Not Active
IC50 (Glucocorticoid receptor [3]): Not Active

COc1cc2c(c3oc(=O)c4c(c13)CCC4=O)[C@@H]1C=CO[C@@H]1O2 [AFLATOXIN]
IC50 ([1]; mdck): Not Active
Ki ([1]; mdck): Not Active
IC50 (Androgen receptor [2]): Not Active
Ki (Androgen receptor [2]): Not Active
IC50 (Glucocorticoid receptor [3]): Not Active
Ki (Glucocorticoid receptor [3]): Not Active

CC1(C)O[C@@H]2C[C@H]3[C@@H]4C[C@H](F)C5=CC(=O)CC[C@]5(C)[C@H]4[C@@H](O)C[C@]3(C)[C@]2(C(=O)CO)O1 [FLURANDRENOLIDE]
IC50 ([1]; mdck): Not Active
IC50 (Glucocorticoid receptor [4]): 4.45 nM
Ki (Glucocorticoid receptor [4]): 2.02 nM

CC1(C)O[C@@H]2C[C@H]3[C@@H]4C[C@H](F)C5=CC(=O)C=C[C@]5(C)[C@@]4(F)[C@@H](O)C[C@]3(C)[C@]2(C(=O)CO)O1 [FLUOCINOLONE ACETONIDE]
IC50 ([1]; mdck): Not Active
IC50 (Glucocorticoid receptor [4]): 3.13 nM
Ki (Glucocorticoid receptor [4]): 1.42 nM

Cc1cc(=O)n(-c2ccccc2)n1C [ANTIPYRINE]
IC50 ([1]; mdck): Not Active
IC50 (Androgen receptor [2]): Not Active

O=NN(CCCl)C(=O)NCCCl [CARMUSTINE]
IC50 ([1]; mdck): Not Active
IC50 (Androgen receptor [2]): Not Active
IC50 (Glucocorticoid receptor [3]): Not Active

Oc1ccc(OCc2ccccc2)cc1 [MONOBENZONE]
IC50 ([1]; read-out: IC50): 3.89 µM
Ki ([1]; read-out: Ki): 3.85 µM
IC50 (Androgen receptor [2]): Not Active
IC50 (Glucocorticoid receptor [3]): Not Active

O=C1CC2(CCCC2)CC(=O)N1CCCCN1CCN(c2ncccn2)CC1 [BUSPIRONE]
IC50 ([1]; mdck): Not Active
IC50 (Androgen receptor [2]): Not Active

COc1ccc2c(c1)c(CC(=O)O)c(C)n2C(=O)c1ccc(Cl)cc1 [INDOMETHACIN]
IC50 ([1]; mdck): Not Active
IC50 (Androgen receptor [2]): Not Active
IC50 (Glucocorticoid receptor [3]): Not Active

C[C@]12CC[C@@H]3c4ccc(OC(=O)c5ccccc5)cc4CC[C@H]3[C@@H]1CC[C@@H]2O [ESTRADIOL BENZOATE]
IC50 ([1]; read-out: IC50): 17.2 µM
Ki ([1]; read-out: Ki): 17.1 µM
IC50 (Androgen receptor [5]): 10 nM
Ki (Androgen receptor [5]): 6.98 nM
IC50 (Glucocorticoid receptor [4]): 5070 nM
Ki (Glucocorticoid receptor [4]): 2310 nM

CC1(C)O[C@@H]2C[C@H]3[C@@H]4C[C@H](F)C5=CC(=O)C=C[C@]5(C)[C@H]4[C@@H](O)C[C@]3(C)[C@]2(C(=O)CO)O1 [FLUNISOLIDE]
IC50 ([1]; mdck): Not Active
IC50 (Glucocorticoid receptor [4]): 5.33 nM
Ki (Glucocorticoid receptor [4]): 2.42 nM

CC(=O)Nc1ccc(O)cc1 [ACETAMINOPHEN]
IC50 ([1]; mdck): Not Active
IC50 (Androgen receptor [2]): Not Active

N=C(Nc1ccccc1)Nc1ccccc1
IC50 ([1]; read-out: IC50): 1.15 µM
Ki ([1]; read-out: Ki): 1.14 µM
IC50 (Cytochrome P450 2D6): 3440 nM
IC50 (Glucocorticoid receptor [3]): Not Active

CCN1CC(CCN2CCOCC2)C(c2ccccc2)(c2ccccc2)C1=O (configuration not stated) [DOXAPRAM]
IC50 ([1]; mdck): Not Active
IC50 (Cytochrome P450 2D6): 100 nM
IC50 (Glucocorticoid receptor [3]): Not Active

Cn1c(=O)c2c(ncn2CC2OCCO2)n(C)c1=O [DOXOFYLLINE]
IC50 ([1]; mdck): Not Active
IC50 (Androgen receptor [2]): Not Active

OC(CCN1CCCCC1)(c1ccccc1)C1CCCCC1 (configuration not stated) [TRIHEXYPHENIDYL]
IC50 ([1]; mdck): Not Active
IC50 (Cytochrome P450 2D6): 2450 nM

CC(=O)OCC(=O)[C@@]1(O)CC[C@H]2[C@@H]3CCC4=CC(=O)CC[C@]4(C)[C@H]3C(=O)C[C@@]21C [CORTISONE ACETATE]
IC50 ([1]; mdck): Not Active
IC50 (Androgen receptor [2]): Not Active

C[C@H]1O[C@@H](O[C@H]2[C@@H](O)C[C@H](O[C@H]3[C@@H](O)C[C@H](O[C@H]4CC[C@@]5(C)[C@H](CC[C@@H]6[C@@H]5CC[C@]5(C)[C@@H](C7=CC(=O)OC7)CC[C@]65O)C4)O[C@@H]3C)O[C@@H]2C)C[C@H](O)[C@@H]1O [DIGITOXIN]
IC50 ([1]; mdck): Not Active
IC50 (Androgen receptor [2]): Not Active
IC50 (Glucocorticoid receptor [3]): Not Active

CN(C)c1ccc(C(=C2C=CC(=[N+](C)C)C=C2)c2ccc(N(C)C)cc2)cc1.[Cl-] [GENTIAN VIOLET]
IC50 ([1]; mdck): Not Active
IC50 (Androgen receptor [5]): 5570 nM
Ki (Androgen receptor [5]): 3710 nM
IC50 (Cytochrome P450 2D6): 824 nM
IC50 (Glucocorticoid receptor [3]): Not Active

O=C(O)Cc1ccccc1Nc1c(Cl)cccc1Cl [DICLOFENAC]
IC50 ([1]; mdck): Not Active
IC50 (Androgen receptor [2]): Not Active

CCCCN1CCCCC1C(=O)Nc1c(C)cccc1C.Cl (configuration not stated) [BUPIVACAINE HYDROCHLORIDE]
IC50 ([1]; mdck): Not Active
IC50 (Cytochrome P450 2D6): 400 nM
IC50 (Androgen receptor [2]): Not Active
